# Test results published in US7671091B2, “Penis enlargement” (priority 2004, dated 2010).
# Assays:
# human penis [1] = experiment: Permanent increase in erect penis length and girth after repeated intracavernosal vasodilator treatment of male patients; format: in vivo
# Excerpt: The term “penis length” refers to the maximum length of the penis, as measured along the dorsal surface of the penis from the symphysis pubis to the tip or end of the glans penis when the glans penis is pulled manually and put under tension. Preferably, the measurement is taken when the penis is fully erect.
# The term “penis girth” refers to the largest measured value obtained for circumference of the erect penis, as measured in the midshaft region (middle third). Preferably, the measurement is taken when the penis is fully erect.
# An engorgement is deemed “cumulative prolonged” when an erectile response lasts for at least 3 hours over a 24 hours period.
# (§1) Therefore, a “cumulative prolonged engorgement” would be an erectile response that is over 40% for a period of at least 3 hours in a 24 hours period.
# A patient was treated with intracavernosal injections of a vasodilator, prostaglandin E1, on a regular basis (approximately four to five times per week) over an 18 month treatment period. […] The quantity of medication was adjusted from time to time in accordance with the patient's response, which was monitored at least weekly. […]
# A patient was treated with intracavernosal injections of a quadruple mix of the vasodilators prostaglandin E1, Atropine, Chlorpromazine and Papavarine on a regular basis (approximately two to four times per week) over a 4-month treatment period. […] The quantity of medication was adjusted in accordance with the patient's response. The potentiator dihydrotestosterone 5% ointment was administered […] starting two weeks before starting the IC injections of the vasodilators Atropine, Chlorpromazine and Papavarine and prostaglandin.
# human penis [2] = details: in vivo
# Protocol: as §1
# (§2) The quantity of medication was adjusted in accordance with the patient's response.
# as §2
# [3] = Example 1: patient, 18-month treatment
Structure (SMILES),"increase in erect penis length (human penis [1]; Example 6: patient, 4 months, frequently with oral Viagra, dihydrotestosterone gel) [%]","erect penis length after treatment (human penis [1]; Example 6: patient, intracavernosal 2-4 times per week, 4 months, frequently combined with oral Viagra, potentiator dihydrotestosterone gel, from 5.2 inches) [inches]",tolerability (sensitivity) (human penis [2]),increase in erect penis girth (human penis [1]; [3]) [%],increase in erect penis length (human penis [1]; [3]) [%],"fully erect penis girth after treatment (human penis [1]; Example 1: patient, 18-month treatment, from 3.7 inches) [inches]","fully erect penis length after treatment (human penis [1]; Example 1: patient, intracavernosal, approx. 4-5 times per week, 18-month treatment, from 5.8 inches) [inches]","increase in erect penis length (human penis [1]; Example 10: patient, 3 months, with daily subcutaneous dihydrotestosterone) [%]","erect penis length after treatment (human penis [1]; Example 10: patient, two separate IC injections per treatment day, 2-5 times per week, 3 months, dihydrotestosterone 15 mg subcutaneously into the penis daily, from 6.3 inches) [inches]"
Cc1ccc(N(CC2=NCCN2)c2cccc(O)c2)cc1 [phentolamine],~25,6.5,,,,,,,
CCCCC[C@H](O)/C=C/[C@H]1[C@H](O)CC(=O)[C@@H]1CCCCCCC(=O)O [prostaglandin E1],,,aching and pain at higher doses,~56,~48,5.8,8.6,~13,7.1
